Each cell line was assayed with c1ccc2c(CCNc3ccc(Nc4ccncc4)cc3)c[nH]c2c1 [Serdemetan] + CS(=O)(=O)CCNCc1ccc(-c2ccc3ncnc(Nc4ccc(OCc5cccc(F)c5)c(Cl)c4)c3c2)o1 [Lapatinib] (partner 2 µM) (assay: relative viability (nuclei count vs DMSO), 5 days (fraction); higher = more cells survive). Details: first compound 0.04 µM.
In short: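 Relative viability divides the nuclei count in treated wells by that in vehicle wells. Lung cancer cell lines were seeded in 1536-well plates, dosed by pin tool the next day, and fixed and stained after 5 days in one step with final 0.05% Triton X-100, 1% formaldehyde and 1 ug/ml Hoechst. Dosing was a single drug or a fixed anchor-drug dose plus five library-drug doses (not always all listed) in √10 steps, and values are medians of duplicate plates imaged at 4×.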

| Cell Line | relative viability |
| --- | --- |
| NCI-H2085 | 0.814 |
| Calu-6 | 1.13 |
| HCC-366 | 1.07 |
| NCI-H1666 | 0.853 |
| NCI-H596 | 1.07 |
| LK-2 | 0.899 |
| NCI-H2087 | 1.06 |
| SK-MES-1 | 0.416 |
| H3255 | 0.222 |
| COR-L23 | 0.916 |
| COR-L 105 | 0.384 |
| IA-LM | 0.723 |
| LOU-NH91 | 0.773 |
| NCI-H2170 | 0.322 |
| NCI-H2405 | 1 |
| HOP-62 | 0.862 |

| Cell Line | relative viability |
| --- | --- |
| HCC-44 | 0.875 |
| A549 | 1.06 |
| LU99A | 1.03 |
| BEN | 0.623 |
| HARA | 0.653 |
| HCC-78 | 0.769 |
| NCI-H322M | 0.577 |
| LCLC-97TM1 | 0.776 |
| NCI-H2009 | 0.851 |
| A-427 | 0.996 |
| NCI-H661 | 0.474 |
| NCI-H1734 | 0.855 |
| NCI-H460 | 0.878 |
| NCI-H2347 | 0.8 |
| SK-LU-1 | 0.758 |
| NCI-H1395 | 1.04 |

Same assay, conditions: first compound 0.1265 µM

| Cell Line | relative viability |
| --- | --- |
| NCI-H2085 | 0.779 |
| Calu-6 | 0.99 |
| HCC-366 | 0.811 |
| NCI-H1666 | 0.656 |
| NCI-H596 | 0.972 |
| LK-2 | 0.873 |
| NCI-H2087 | 0.974 |
| SK-MES-1 | 0.503 |
| H3255 | 0.229 |
| COR-L23 | 0.924 |
| COR-L 105 | 0.372 |
| IA-LM | 1 |
| LOU-NH91 | 0.83 |
| NCI-H2170 | 0.298 |
| NCI-H2405 | 1.06 |
| HOP-62 | 1.06 |

| Cell Line | relative viability |
| --- | --- |
| HCC-44 | 0.99 |
| A549 | 0.916 |
| LU99A | 0.927 |
| BEN | 0.704 |
| HARA | 0.773 |
| HCC-78 | 0.666 |
| NCI-H322M | 0.585 |
| LCLC-97TM1 | 1.16 |
| NCI-H2009 | 1.03 |
| A-427 | 0.987 |
| NCI-H661 | 0.503 |
| NCI-H460 | 0.936 |
| NCI-H2347 | 0.938 |
| SK-LU-1 | 0.772 |
| NCI-H1395 | 1.07 |

Same assay, conditions: first compound 0.4 µM

| Cell Line | relative viability |
| --- | --- |
| NCI-H2085 | 0.74 |
| Calu-6 | 0.989 |
| HCC-366 | 0.902 |
| NCI-H1666 | 0.613 |
| NCI-H596 | 1.09 |
| LK-2 | 1.03 |
| NCI-H2087 | 1.1 |
| SK-MES-1 | 0.466 |
| H3255 | 0.258 |
| COR-L23 | 1.03 |
| COR-L 105 | 0.284 |
| IA-LM | 0.655 |
| NCI-H2170 | 0.285 |
| NCI-H2405 | 1.17 |
| HOP-62 | 0.937 |
| HCC-44 | 0.862 |

| Cell Line | relative viability |
| --- | --- |
| A549 | 0.901 |
| LU99A | 1.07 |
| BEN | 0.592 |
| HARA | 0.68 |
| HCC-78 | 0.323 |
| NCI-H322M | 0.546 |
| LCLC-97TM1 | 1.11 |
| NCI-H2009 | 0.889 |
| A-427 | 1.1 |
| NCI-H661 | 0.572 |
| NCI-H1734 | 0.833 |
| NCI-H460 | 0.866 |
| NCI-H2347 | 0.781 |
| SK-LU-1 | 0.822 |
| NCI-H1395 | 1.34 |

Same assay, conditions: first compound 1.265 µM

| Cell Line | relative viability |
| --- | --- |
| NCI-H2085 | 0.649 |
| Calu-6 | 0.887 |
| HCC-366 | 0.0523 |
| NCI-H1666 | 0.573 |
| NCI-H596 | 0.871 |
| LK-2 | 0.884 |
| NCI-H2087 | 0.641 |
| SK-MES-1 | 0.381 |
| H3255 | 0.251 |
| COR-L23 | 0.422 |
| COR-L 105 | 0.335 |
| IA-LM | 0.584 |
| LOU-NH91 | 0.606 |
| NCI-H2170 | 0.268 |
| NCI-H2405 | 1.07 |
| HOP-62 | 0.791 |

| Cell Line | relative viability |
| --- | --- |
| HCC-44 | 0.913 |
| A549 | 0.953 |
| LU99A | 0.363 |
| BEN | 0.359 |
| HCC-78 | 0.448 |
| NCI-H322M | 0.546 |
| LCLC-97TM1 | 0.674 |
| NCI-H2009 | 0.822 |
| A-427 | 1.02 |
| NCI-H661 | 0.428 |
| NCI-H1734 | 0.0959 |
| NCI-H460 | 0.659 |
| NCI-H2347 | 0.812 |
| SK-LU-1 | 0.781 |
| NCI-H1395 | 0.932 |

Same assay, conditions: first compound 4 µM

| Cell Line | relative viability |
| --- | --- |
| NCI-H2085 | 0.501 |
| Calu-6 | 0.68 |
| HCC-366 | 0.0553 |
| NCI-H1666 | 0.498 |
| NCI-H596 | 0.666 |
| LK-2 | 0.757 |
| NCI-H2087 | 0.508 |
| SK-MES-1 | 0.387 |
| H3255 | 0.186 |
| COR-L23 | 0.78 |
| COR-L 105 | 0.363 |
| IA-LM | 0.322 |
| LOU-NH91 | 0.83 |
| NCI-H2170 | 0.273 |
| NCI-H2405 | 0.963 |
| HOP-62 | 0.89 |

| Cell Line | relative viability |
| --- | --- |
| HCC-44 | 0.873 |
| A549 | 0.455 |
| LU99A | 0.229 |
| BEN | 0.556 |
| HARA | 0.604 |
| HCC-78 | 0.78 |
| NCI-H322M | 0.562 |
| LCLC-97TM1 | 0.87 |
| NCI-H2009 | 0.691 |
| A-427 | 0.749 |
| NCI-H661 | 0.438 |
| NCI-H1734 | 0.195 |
| NCI-H460 | 0.132 |
| NCI-H2347 | 0.872 |
| SK-LU-1 | 0.612 |
| NCI-H1395 | 0.717 |

Source: the supplement of paper PMC10307832
